The target of data set [1] is T1, CXCR4 (Homo sapiens, UniProt P61073). Nature of the data set: CXCR4 calcium mobilization assay (CXCL12-induced, U87.CD4.CXCR4 cells, FLIPR). It is filed as cell-based. The following applies: Concentration needed to inhibit CXCL12-induced calcium signaling by 50%. How it is done: (§1) First, the ability of the compounds to compete with fluorescently labeled CXCL12 (CXCL12^AF647) for binding at CXCR4 was determined. […] Finally, given the role of CXCR4 as a major coreceptor for HIV entry, the antiviral activity of the compounds against the X4-tropic wild type HIV-1 NL4-3 strain and the HIV-2 ROD strain was determined in MT-4 cells. In parallel, the cytotoxicity of the compounds for uninfected MT-4 cells was assessed.
The calcium mobilization assay has been described in detail previously [Claes et al. JoVE 2018, 132, 1-9]. U87.CD4.CXCR4 cells (2×10^4 cells per well in DMEM/10% FBS/0.01M HEPES) were seeded in gelatin-coated (Sigma-Aldrich; 0.1% gelatin in DPBS) black-walled 96-well plates and incubated overnight at 37° ° C. and 5% CO2. The next day, cells were loaded with the fluorescent calcium indicator Fluo-2 acetoxymethyl (AM) ester (4 μM; Abcam) and incubated at room temperature in the dark for 45 minutes. Then, cells were incubated with various concentrations of the compounds for 10 minutes prior to addition of 6.25 nM CXCL12 (in assay buffer). Fluctuations in intracellular calcium levels were measured in real time by the FLIPR Tetra® (Molecular Devices, Sunnyvale, CA, USA) in all 96 wells simultaneously. The response over baseline (after CXCL12 addition) was calculated with the ScreenWorks 4.0® software (Molecular Devices) by dividing the obtained relative light units (RLUs) through the base line measured just before CXCL12 addition. From this the IC50 value for each compound was determined taking into account the negative (i.e. untreated cells without CXCL12 stimulation) and positive (i.e. untreated cells with CXCL12 addition) control samples.
(In general: A change in cytosolic calcium serves as a functional read-out for many receptors and channels.)

Data set [2] can be described thus: Cytotoxicity for mock-infected (uninfected) MT-4 cells. It is filed as cell-based. Particulars: human, mock-infected (uninfected) MT-4 cells, Concentration required to reduce the viability of mock-infected MT4 cells by 50%. As for the experimental part: (§2) First, the ability of the compounds to compete with fluorescently labeled CXCL12 (CXCL12^AF647) for binding at CXCR4 was determined. Secondly, since binding of CXCL12 to CXCR4 results into a transient increase of cytosolic calcium levels, the inhibition of this CXCL12-induced calcium mobilization by the various compounds was also investigated. […] In parallel, the cytotoxicity of the compounds for uninfected MT-4 cells was assessed. […] The anti-HIV assays in MT-4 cells been described in detail before [Hout et al. cited above; […] et al. AIDS 2004, 18, 2115-2125]. […] After five days, the cytopathic effect was checked microscopically and cell viability (i.e. viral replication) was evaluated using the MTS/PES-based CellTiter 96 Aqueous One Solution Cell Proliferation assay (Promega, Fitchburg, WI, USA). Absorbance was recorded using the VersaMax ELISATM microplate reader (Molecular Devices) and analyzed with the Softmax Pro® software (Molecular Devices).

For data set [3], the target named is T1, CXCR4. Nature of the data set: CXCR4 binding assay (competition with CXCL12^AF647 on Jurkat cells, flow cytometry). Also noted: endogenous in cells; host or cells: Jurkat cells. As for the experimental part: as §1
The CXCL12^AF647 binding assay with Jurkat cells has been described previously [Schoofs et al. JoVE 2018, 133, 1-8]. Briefly, Jurkat cells were resuspended in assay buffer [Hank's Balanced Salt Solution (HBSS, Thermo Fisher Scientific), 20 mM HEPES buffer, 0.2% bovine serum albumin (Sigma-Aldrich), pH 7.4] at 3×10^5 cells per sample and then treated with various concentrations of the compound at room temperature for 15 minutes. Afterwards, the cells were incubated with 2.9 nM CXCL12^AF647 (in assay buffer) at room temperature for 30 minutes in the dark. Cells were fixed in 1% paraformaldehyde in DPBS and specific CXCL12^AF647 binding [i.e. mean fluorescence intensity (MFI)] was quantified by flow cytometry (FACSArray™; Becton Dickinson). Data were analyzed with FlowJo® Software. The 50% inhibitory concentration (IC50) was calculated for each compound relative to the negative (i.e. autofluorescence of untreated and unlabeled cells) and positive (i.e. untreated cells exposed to CXCL12^AF647 only) control.
In general terms: A flow cytometer gives signals particle by particle.

Data set [4] relates to MT-4 cells. As to the kind of experiment: Cytotoxicity for mock-infected (uninfected) MT-4 cells. It is filed as cell-based. How it is done:
as §2

The test system of data set [5] is HIV-1 NL4-3. Nature of the data set: Anti-HIV assay in MT-4 cells, HIV-1 NL4-3. It is filed as cell-based. The following applies: Human immunodeficiency virus 1, NL43, MT4; Concentration required to achieve 50% protection of MT-4 cells against HIV-induced cytopathicity. As for the experimental part: as §2
A general note: Damage to the host cells serves as the signal in cytopathic effect assays.

Data set [6] deals with HIV-2 ROD. Nature of the data set: Anti-HIV assay in MT-4 cells, HIV-2 ROD. Particulars: Human immunodeficiency virus 2, MT4; Concentration required to achieve 50% protection of MT-4 cells against HIV-induced cytopathicity. In kind it is cell-based. How it is done:
as §2

The mark [7] stands for this setting: Concentration needed to inhibit CXCL12 receptor binding by 50%, Jurkat cells, mean of at least two independent experiments, read-out: CXCR4 Binding IC50.

T1 sequence (P61073 whole entry): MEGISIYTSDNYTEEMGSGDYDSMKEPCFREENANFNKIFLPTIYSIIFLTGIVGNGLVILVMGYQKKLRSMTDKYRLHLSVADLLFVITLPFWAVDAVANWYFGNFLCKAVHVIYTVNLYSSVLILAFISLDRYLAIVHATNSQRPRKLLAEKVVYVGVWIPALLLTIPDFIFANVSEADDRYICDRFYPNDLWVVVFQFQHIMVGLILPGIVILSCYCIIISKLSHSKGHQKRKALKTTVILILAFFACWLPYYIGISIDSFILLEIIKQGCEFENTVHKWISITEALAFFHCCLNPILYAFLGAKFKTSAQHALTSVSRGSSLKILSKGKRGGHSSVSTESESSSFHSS

The IC50 is the concentration that inhibits the measured activity by half. Broadly, the CC50 is the concentration that lowers cell viability or growth by half. A lower CC50 goes with greater toxicity to the cells. For the molecule `COc1cc2ccnc(CN(CCCCN)C3CCCc4cccnc43)c2cc1OC` (stereo not shown) [Compound 19a, N1-((6,7-Dimethoxyisoquinolin-1-yl)methyl)-N1-(5,6,7,8-tetrahydroquinolin-8-yl) butane-1,4-diamine], the concentration for half-maximal inhibition (IC50) in data set [1] came out at 25 nM; in data set [3] (setting [7]) it was 7.2 nM. Besides, in data set [2], the CC50 at 5 days was greater than 100000 nM.

As to `COc1ccc2c(CN(CCCCN)C3CCCc4cccnc43)nccc2c1` (stereo not shown) [Compound 19b, N1-((6-Methoxyisoquinolin-1-yl)methyl)-N1-(5,6,7,8-tetrahydroquinolin-8-yl)butane-1,4-diamine], the IC50 in data set [1] stood at 28 nM; in data set [3] (setting [7]) it was 0.25 nM. Moreover, the CC50 at 5 days in data set [2] turned out to be 11100 nM.

Take `NCCCCN(Cc1nccc2cc(F)ccc12)C1CCCc2cccnc21` (stereo not shown) [Compound 19c, N1-((6-Fluoroisoquinolin-1-yl)methyl)-N1-(5,6,7,8-tetrahydroquinolin-8-yl)butane-1,4-diamine]: the IC50 was found to be 33 nM in data set [1] and 8.9 nM in data set [3] (setting [7]). For the same molecule, the midpoint of cytotoxicity in data set [2], the CC50 at 5 days, lay at 18100 nM.

As for `NCCCCN(Cc1nccc2cc(Br)ccc12)C1CCCc2cccnc21` (stereo not shown) [Compound 19d, N1-((6-Bromoisoquinolin-1-yl)methyl)-N1-(5,6,7,8-tetrahydroquinolin-8-yl)butane-1,4-diamine], the results for the half-inhibitory concentration (IC50) in data set [1] and in data set [3] (setting [7]) were 440 nM and 26 nM, respectively. In data set [2], this molecule displayed a half-maximal cytotoxic concentration (CC50) at 5 days of 43600 nM.

In the case of `NCCCCN(Cc1nccc2ccccc12)C1CCCc2cccnc21` (stereo not shown) [Compound 19e, N1-(Isoquinolin-1-ylmethyl)-N1-(5,6,7,8-tetrahydroquinolin-8-yl)butane-1,4-diamine], the results for the IC50 in data set [1] and in data set [3] (setting [7]) were 130 nM and 9.2 nM, respectively. Moreover, half-maximal cytotoxicity in data set [2] (CC50 at 5 days) was put at 26700 nM. Besides, the “cytotoxicity for the MT4 cell line” value in data set [4] was “lack cytotoxicity”.

On to `NCCCCN(Cc1ccccn1)C1CCCc2cccnc21` (stereo not shown) [Compound 20, N1-(Pyridin-2-ylmethyl)-N1-(5,6,7,8-tetrahydroquinolin-8-yl)butane-1,4-diamine], for which, in data set [2], the CC50 at 5 days was found to be 55400 nM. Further, in data set [4], the “cytotoxicity for the MT4 cell line” value was “lack cytotoxicity”.

On to `COc1cc2ccnc(CN(CCCCN)Cc3ncccc3C)c2cc1OC` [Compound 24a, N1-((6,7-dimethoxyisoquinolin-1-yl)methyl)-N1-((3-methylpyridin-2-yl)methyl) butane-1,4-diamine], for which the figures for the IC50 in data set [1] and in data set [3] (setting [7]) were 13 nM and 3.2 nM, respectively. The CC50 at 5 days in data set [2] is greater than 100000 nM. Further, the “cytotoxicity for the MT4 cell line” value in data set [4] was “lack cytotoxicity”.

`COc1ccc2c(CN(CCCCN)Cc3ncccc3C)nccc2c1` [Compound 24b, N1-((6-Methoxyisoquinolin-1-yl)methyl)-N1-((3-methylpyridin-2-yl)methyl) butane-1,4-diamine]: the IC50 is 3850 nM in data set [1] and 890 nM in data set [3] (setting [7]). The same molecule gave a CC50 at 5 days in data set [2] of 9270 nM.

As for `Cc1cccnc1CN(CCCCN)Cc1nccc2cc(F)ccc12` [Compound 24c, N1-((6-Fluoroisoquinolin-1-yl)methyl)-N1-((3-methylpyridin-2-yl)methyl) butane-1,4-diamine], the IC50 was 6.1 nM in data set [1]; 0.64 nM in data set [3] (setting [7]); 0.6 to 6 nM in data set [3] (span over all assays (binding, calcium, HIV-1, HIV-2), read-out: IC50 values in all assays). Moreover, the CC50 at 5 days in data set [2] is 31000 nM. For the same molecule, the “cytotoxicity for the MT4 cell line” value in data set [4] was “lack cytotoxicity”. This molecule displayed a CC50 in data set [4] (Concentration required to reduce the viability of mock-infected MT4 cells by 50%) of 30800 nM.

Turning to `Cc1cccnc1CN(CCCCN)Cc1nccc2cc(Br)ccc12` [Compound 24d, N1-((6-Bromoisoquinolin-1-yl)methyl)-N1-((3-methylpyridin-2-yl)methyl) butane-1,4-diamine], the IC50 in data set [1] turned out to be 690 nM; in data set [3] (setting [7]) it was 39 nM. The molecule also gave a CC50 at 5 days in data set [2] of 29500 nM.

As to `Cc1cccnc1CN(CCCCN)Cc1ccccn1` [Compound 25, N1-((3-Methylpyridin-2-yl)methyl)-N1-(pyridin-2-ylmethyl)butane-1,4-diamine], the IC50 in data set [1] was 180 nM. In data set [2], this molecule yielded a CC50 at 5 days of 79800 nM.

The EC50 is the concentration giving half of the maximal effect. Low values mean greater potency, high ones weaker potency. As for `NCCCCN(Cc1ccccc1)c1cccc2cccnc12` [Compound 31a, N^1-benzyl-N^1-(quinolin-8-yl)butane-1,4-diamine], the figures for the IC50 in data set [1] and in data set [3] (setting [7]) were greater than 50000 nM and greater than 100000 nM, respectively. The EC50 in data set [5] and in data set [6] was greater than 41600 nM each time. The same molecule came in with a CC50 at 5 days in data set [2] of 41600 nM.

Turning to `NCCCCN(Cc1ccccn1)c1cccc2cccnc12` [Compound 31b, N^1-(pyridin-2-ylmethyl)-N^1-(quinolin-8-yl)butane-1,4-diamine], the figures for the IC50 in data set [1] and in data set [3] (setting [7]) were 5500 nM and 36 nM, respectively. For the same molecule, the EC50 in data set [5] was 380 nM; in data set [6], greater than 9460 nM. In data set [2], this molecule came in with a CC50 at 5 days of 9460 nM.

Regarding `NCCCCN(Cc1nccc2ccccc12)c1cccc2cccnc12` [Compound 31c, N^1-(isoquinolin-1-ylmethyl)-N^1-(quinolin-8-yl)butane-1,4-diamine], the IC50 came to 5 nM in data set [1] and 2.3 nM in data set [3] (setting [7]). Moreover, the EC50 was determined as 18 nM in data set [5] and 1.3 nM in data set [6]. In addition, the CC50 at 5 days in data set [2] stood at 2980 nM.

In turn, `c1cc(CN2CCCNCCNCCCNCC2)ccc1CN1CCCNCCNCCCNCC1` [Plerixafor, reference compound] displayed a CC50 at 5 days in data set [2] of 6290 nM.

Source of the values: patent publication US20240293391A1, “ISOQUINOLINE AND PYRIDINE BASED CXCR4 ANTAGONISTS” (Katholieke Universiteit Leuven, priority 2021, published 2024).
